The source of these data is PubChem BioAssay (NCI).

Some test systems named below: IGROV1 ovarian; HCT-116 colon; A498 renal; SF-268 CNS; OVCAR-4 ovarian; NCI-H23 lung; MOLT-4 leukemia; T-47D breast; HOP-62 NSCLC; RPMI-8226 leukemia; SR leukemia.
Common to all, as to test: inhibition of tumour cell growth, NCI panel, 48 h

Each structure is given as a SMILES string.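 1) Cells in 96-well plates. 2) Compound, 48 h, 5 concentrations. 3) Linear interpolation between surrounding doses. 4) Unreached endpoint = highest concentration. TGI is the concentration that stops growth completely.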

With `CC1=C(c2ccc(C)cc2)NC(=S)C(C)C(c2ccc(C)cc2)=N1` (centres undefined), the TGI in the test on IGROV1 ovarian, in the test with HCT-116 colon, with A498 renal, in the test with SF-268 CNS, in the test on OVCAR-4 ovarian and with NCI-H23 lung was more than 100 µM throughout. Also, the TGI with MOLT-4 leukemia, in the test on T-47D breast, with HOP-62 NSCLC and in the test on RPMI-8226 leukemia was more than 100 µM each time.
On to `CN(C)C(=O)C(F)(F)C(c1ccc(C(F)(F)F)cc1)C1C(=O)N(C)C(=O)N(C)C1=O` (centres undefined), for which the TGI in the test with HCT-116 colon, with A498 renal, in the test on SF-268 CNS, in the test on OVCAR-4 ovarian, in the test with NCI-H23 lung and with T-47D breast was more than 100 µM each time. Besides, the TGI in the test with HOP-62 NSCLC and in the test on RPMI-8226 leukemia was more than 100 µM throughout.
For the molecule `O=C1Cc2c(-c3ccccc3)cc(-c3ccc4ccccc4c3)nc2-c2ccccc2N1`, the TGI was 11.9 µM with IGROV1 ovarian; more than 100 µM in the test on HCT-116 colon; 49.6 µM in the test on A498 renal; 29.9 µM in the test with SF-268 CNS; more than 100 µM with OVCAR-4 ovarian; more than 100 µM with NCI-H23 lung. Moreover, the TGI in the test with MOLT-4 leukemia, in the test on SR leukemia, in the test with T-47D breast, in the test with HOP-62 NSCLC and in the test on RPMI-8226 leukemia was more than 100 µM each time.
On to `N#Cc1nc(NC(=O)c2ccccc2)sc1N`, for which the TGI in the test on IGROV1 ovarian, with HCT-116 colon, with A498 renal, with SF-268 CNS, in the test with OVCAR-4 ovarian and in the test on NCI-H23 lung was more than 10 µM in each case. The TGI with MOLT-4 leukemia, with SR leukemia, in the test with T-47D breast, in the test on HOP-62 NSCLC and in the test with RPMI-8226 leukemia was more than 10 µM throughout.
As for `CC(=O)O[C@H]1CC[C@@]2(C)C(=CC[C@H]3[C@@H]4C/C(=C\c5ccncc5)[C@H](OC(C)=O)[C@@]4(C)CC[C@@H]32)C1`, the TGI in the test with IGROV1 ovarian stood at 27.7 µM; in the test with HCT-116 colon, 24.1 µM; in the test on A498 renal it was 26.7 µM; with SF-268 CNS, 25.8 µM; in the test with OVCAR-4 ovarian it was 18.2 µM; in the test on NCI-H23 lung, 19.3 µM. Further, the TGI with MOLT-4 leukemia is 13.9 µM; in the test on SR leukemia it was 9.19 µM; in the test with T-47D breast it was 38.5 µM; in the test on HOP-62 NSCLC it was 17.7 µM; with RPMI-8226 leukemia, 7.6 µM.
With `CC(=O)OC(C#N)CC(C)(C)/[N+]([O-])=[N+](\[O-])C(C)(C)CC(C#N)OC(C)=O` (centres undefined), the TGI was 24 µM with IGROV1 ovarian; 20.9 µM in the test with HCT-116 colon; more than 100 µM with A498 renal; 42.2 µM in the test on SF-268 CNS; 33.9 µM in the test with OVCAR-4 ovarian; 34 µM in the test on NCI-H23 lung. The TGI with MOLT-4 leukemia was 26.3 µM; in the test with SR leukemia, 48.3 µM; with T-47D breast, 50.2 µM; in the test with HOP-62 NSCLC, 36.2 µM; in the test with RPMI-8226 leukemia it was 40.2 µM.
For the molecule `COc1cc2c(cc1O)-c1c(OC)c(O)cc3c1C(C2)N(C)CC3` (centres undefined), the TGI in the test with IGROV1 ovarian, in the test on HCT-116 colon, with A498 renal, with SF-268 CNS, in the test with OVCAR-4 ovarian and in the test with NCI-H23 lung was more than 100 µM each time. Moreover, the TGI with MOLT-4 leukemia, in the test with SR leukemia, in the test with T-47D breast and with RPMI-8226 leukemia was more than 100 µM each time.
Turning to `O=C1C=C(NCCc2cc(Cl)c(O)c(Cl)c2)C(=O)c2[nH]cnc21`, the TGI was 38.8 µM in the test with IGROV1 ovarian; more than 100 µM in the test with HCT-116 colon; more than 100 µM with A498 renal; 36.8 µM in the test with NCI-H23 lung; 67.5 µM in the test on MOLT-4 leukemia; more than 100 µM in the test with SR leukemia. The figures for the TGI in the test on T-47D breast, in the test on HOP-62 NSCLC and in the test on RPMI-8226 leukemia were 53.2 µM, more than 100 µM and more than 100 µM, respectively.
Turning to `CN1CC(S(=O)(=O)c2ccccc2)CC(S(=O)(=O)c2ccccc2)C1c1ccccc1` (centres undefined), the TGI was more than 100 µM in the test with IGROV1 ovarian; 22.9 µM with HCT-116 colon; 31.7 µM in the test with A498 renal; 37.7 µM with SF-268 CNS; 34.5 µM in the test on OVCAR-4 ovarian; more than 100 µM in the test on MOLT-4 leukemia. Moreover, the TGI stood at 78.3 µM in the test on SR leukemia, 50.6 µM in the test with T-47D breast and 54.6 µM with HOP-62 NSCLC.
On to `Cc1ccc(Cc2nn(C)c(=O)n2-n2cccc2)cc1`, for which the TGI in the test with IGROV1 ovarian, in the test with HCT-116 colon, in the test with A498 renal, in the test with SF-268 CNS, with OVCAR-4 ovarian and in the test with MOLT-4 leukemia was more than 100 µM throughout. Further, the TGI with SR leukemia, in the test with T-47D breast, in the test on HOP-62 NSCLC and in the test with RPMI-8226 leukemia was more than 100 µM each time.
On to `Nc1ccc(-c2nc3ccccc3s2)cc1I`, for which the TGI with IGROV1 ovarian was more than 100 µM; in the test with A498 renal, more than 90.8 µM; with SF-268 CNS, more than 100 µM; in the test with OVCAR-4 ovarian, more than 100 µM; in the test with NCI-H23 lung, more than 100 µM; in the test with MOLT-4 leukemia, more than 46.4 µM. Moreover, the TGI in the test on SR leukemia, in the test with T-47D breast, with HOP-62 NSCLC and in the test on RPMI-8226 leukemia was more than 100 µM each time.
Regarding `Cc1cn(C2CC(N=[N+]=[N-])C(CO)O2)c(=O)n(CCCCO)c1=O` (centres undefined), the TGI in the test with IGROV1 ovarian, with HCT-116 colon, in the test with A498 renal, with SF-268 CNS, with OVCAR-4 ovarian and in the test with NCI-H23 lung was more than 100 µM in each case. The TGI in the test on MOLT-4 leukemia, with T-47D breast, in the test on HOP-62 NSCLC and in the test with RPMI-8226 leukemia was more than 100 µM each time.
For `N#Cc1c(-c2ccccc2)c(C#N)c(=S)n(C2OCC(O)C(O)C2O)c1N` (centres undefined), the TGI in the test with IGROV1 ovarian, with A498 renal, in the test with SF-268 CNS, with NCI-H23 lung, in the test on MOLT-4 leukemia and in the test on SR leukemia was more than 100 µM throughout. Also, the TGI in the test on T-47D breast, with HOP-62 NSCLC and in the test with RPMI-8226 leukemia was more than 100 µM throughout.
